≈ marks a conversion by molar mass, not a printed value. Like-named read-outs stand apart in the source and are kept apart here.

Drawing on US20250170104A1, “INHIBITORS OF PSEUDOMONAS AERUGINOSA VIRULENCE FACTOR Lasß” (priority 2022, published 2025), this text covers IC50, solubility and half-life for 4 compounds.

The target of one data set is LasB (Pseudomonas aeruginosa (strain ATCC 15692 / DSM 22644 / CIP 104116 / JCM 14847 / LMG 12228 / 1C / PRS 101 / PAO1), UniProt P14756). The data set is described as follows: In vitro LasB activity assay (fluorogenic substrate). The format is biochemical. The following applies: LasB 0.3 nM, substrate 150 μM, mean ± SD. The method, then: The LasB activity assay was performed as described previously (Nishino N, Powers J C. Pseudomonas aeruginosa elastase. Development of a new substrate, inhibitors, and an affinity ligand. J Biol Chem. 1980 Apr. 25; 255(8):3482-6) using the fluorogenic substrate 2-Aminobenzoyl-L-Alanyl-Glycyl-L-Leucyl-L-Alanyl-para-Nitro-Benzyl-Amide, purchased from Peptides International (Louisville, KY, USA) and vivitide, LLC (Gardner, MA, USA).
Fluorescence intensity was measured for 60 min at 37° C. in black 384-well microtiter plates (Greiner BioOne, Kremsmünster, Austria) using a CLARIOstar microplate reader (BMG Labtech, Ortenberg, Germany) with an excitation wavelength of […] and an emission wavelength of 415±20 nm. The assay was performed in a final volume of 50 μL of assay buffer (50 mM Tris, pH 7.2, 2.5 mM CaCl2), 0.075% Pluronic F-127, 5% DMSO) containing LasB at a final concentration of […] 0.3 nM and the substrate at 150 μM. Before substrate addition, compounds were preincubated with the enzyme at 37° C. for 15 min. Experiments were performed in duplicates and repeated for at least two times. Blank controls without enzyme were performed. After blank subtraction, the slope of samples containing inhibitors (v) was divided by the slope of a simultaneously started uninhibited enzymatic reaction (v0). IC50 values were determined with nonlinear regression using GraphPad Prism 5 (Graph Pad Software, San Diego, CA, USA) and are given as mean values ±standard deviation (SD). The slope factor was constrained to 1.

The next data set deals with purified LasB (Pseudomonas aeruginosa (strain ATCC 15692 / DSM 22644 / CIP 104116 / JCM 14847 / LMG 12228 / 1C / PRS 101 / PAO1), UniProt P14756). The data set is described as follows: Ex vivo lung homogenate assay with purified LasB. The format is biochemical. As to the method: The lung homogenate was prepared from pig lung, which was stored at −80° C. After thawing the lung tissue was cut into pieces of approximately 1.5 cm diameter and 0.5 to 1 cm thickness. Subsequently the bits were flash frozen in liquid nitrogen and lyophilized for 48 h.
1.2 g dried tissue was then ball milled using an IKA Tube Drive and the respective 50 mL ball milling tubes. 20 steel balls were used with target rpm of 6000, reversing the spinning direction every 30 seconds for a total of 10 min. After 10 min the tube was detached and inverted to loosen the powder. The ball milling was repeated with the same setup twice again.
To the powdery tissue 50 mL of a 10 mM Tris buffer including 2 mM CaCl2 with a pH of 8.0 was added and the IKA Tube Drive used again with the same settings as described before for 10 min to disperse the tissue powder in the aqueous buffer. The yielded lung homogenate was pipetted into 15 mL falcons and stored at −80° C. until further use.
To perform the LasB activity/inhibition assay a compound dilution was prepared in DMSO yielding a 100 fold concentration of the final concentration in the assay. LasB was diluted from a higher stock solution to a 6 μM stock in the same buffer as used for the lung homogenate. The assay was performed in Eppis. With a stepper pipette 10 μL of the prepared LasB solution was added to the Eppis to yield a final protein concentration of 300 nM. Then 188 μL of thawed lung homogenate was added with a stepper pipette. Finally, 2 μL of the 100 fold compound dilutions were added and mixed by pipetting up and down. The Eppis were incubated at 37° C. with a shaking speed of 1000 rpm for 4 h.
After 4 h, the Eppis were centrifuged at a speed of 14,000 rpm, 4° C. for 10 min to separate the soluble cleaved Elastin fragments from the non-cleaved insoluble part. 100 μL of the obtained supernatant was transferred to new Eppis, and the same volume of concentrated hydrochloric acid added. […]
Peak areas and response ratios were calculated using Xcalibur Quan browser with Amprolium set as internal standard. […]

The nature of data set [1]: Kinetic turbidimetric solubility assay. The data set is classed as physicochemical. Conditions: PBS. As to the method:
The desired compounds were sequentially diluted in DMSO in a 96-well plate. 1.5 μL of each well were transferred into another 96-well plate and mixed with 148.5 μL of PBS. Plates were shaken for 5 min at 600 rpm at room temperature, and the absorbance at 620 nm was measured. Absorbance values were normalized by blank subtraction and plotted using GraphPad Prism 8.4.2 (GraphPad Software, San Diego, CA, USA). Solubility (S) was determined based on the First X value of AUC function using a threshold of 0.005.

The next data set can be described thus: in vitro. The format is in vitro ADME. The following applies: mouse, s9. The method, then: For the evaluation of combined phase I and phase II metabolic stability, the compound (1 μM) was incubated with 1 mg/mL pooled liver S9 fraction (Xenotech), 2 mM NADPH, 1 mM UDPGA, 10 mM MgCl2, 5 mM GSH and 0.1 mM PAPS at 37° C. for 0, 5, 15, 30 and 60 min. The metabolic stability of Testosterone (1 μM), verapamil (1 μM) and ketoconazol (1 μM) were determined in parallel to confirm the enzymatic activity of the S9 fraction. The incubation was stopped by precipitation of S9 enzymes with 2 volumes of cold acetonitrile containing internal standard (150 nM Diphenhydramine). Samples were stored on ice for 10 min and precipitated protein was removed by centrifugation (15 min, 4° C., 4,000 rpm). The remaining test compound at different time points was analyzed by LC-MS/MS (TSQ Quantum Access MAX, Thermo Fisher, Dreieich, Germany) and used to determine half-life (t½).

Another data set has as its target MMP2 (Homo sapiens (Human), UniProt P08253). The data set is described as follows: Selectivity assay: inhibition of MMPs. The data set is classed as biochemical. As to the method:
(§1) MMPs-1, -2, -3, -7, -8 and -14 along with the SensoLyte 520 Generic MMP Activity Kit*Fluorimetric* were purchased from AnaSpec (Fremont, CA, USA). The assay was performed as described previously (Schönauer E, Kany A M, Haupenthal J, Hüsecken K, Hoppe I J, Voos K, et al. Discovery of a Potent Inhibitor Class with High Selectivity toward Clostridial Collagenases. J Am Chem Soc. 2017 Sep. 13; 139(36):12696-703) using batimastat as a positive control according to the guidelines of the manufacturer.

A further data set has as its target MMP3 (Homo sapiens (Human), UniProt P08254). The data set is described as follows: Selectivity assay: inhibition of MMPs. The data set is classed as biochemical. The method, then: as §1
The target of the next data set is MMP1 (Homo sapiens (Human), UniProt P03956). The data set is described as follows: Selectivity assay: inhibition of MMPs. The data set is classed as biochemical. As to the method:
as §1

Another data set has as its target HDAC8 (Homo sapiens (Human), UniProt Q9BY41). The data set is described as follows: HDAC inhibition. The format is biochemical. Conditions: read-out: Selectivity IC50 HDAC8. As to the method: (§2) HDAC3 and HDAC8 Inhibitor Screening Assay kits were purchased from Sigma-Aldrich. The assay was performed according to the guidelines of the manufacturer using trichostatin as a positive control. Fluorescence signals were measured in a CLARIOstar plate reader (BMG Labtech).

Another data set deals with HDAC3 (Homo sapiens (Human), UniProt O15379). The data set is described as follows: HDAC inhibition. The format is biochemical. Conditions: read-out: Selectivity IC50 HDAC3. The method, then:
as §2

A further data set deals with ADAM-17 (TACE) (Homo sapiens (Human), UniProt P78536). The data set is described as follows: ADAM-17 (TACE) inhibitor screening assay. The following applies: read-out: Selectivity IC50 TACE. The data set is classed as biochemical. The method, then:
The ADAM-17 (TACE) Inhibitor Screening Assay Kit was purchased from Sigma-Aldrich. The assay was performed according to the guidelines of the manufacturer using ilomastat as a positive control. Fluorescence signals were measured in a CLARIOstar plate reader (BMG Labtech).

A short description of another data set: Cytotoxicity assay. The data set is classed as cell-based. The following applies: human. The method, then: HepG2, HEK293 or A549 cells (2×10^5 cells per well) were seeded in 24-well, flat-bottomed plates. Culturing of cells, incubations, and OD measurements were performed as described previously (Int. J. Cancer 2007, 121, 206-210). Twenty-four hours after seeding the cells, the incubation was started by the addition of test compound in a final DMSO concentration of 1%. The living cell mass was determined after 48 h. At least two independent measurements were performed for each compound.

The next data set concerns P. aeruginosa PA-14. The data set is described as follows: MIC determination assay / antibacterial activity. The data set is classed as cell-based. Conditions: Pseudomonas aeruginosa, PA14. As to the method: Assays regarding the determination of the minimum inhibitory concentration (MIC) were performed as described previously (Elgaher W A M, Fruth M, Groh M, Haupenthal J, Hartmann R W. Expanding the scaffold for bacterial RNA polymerase inhibitors: design, synthesis and structure-activity relationships of ureido-heterocyclic-carboxylic acids. RSC Adv. 2013 Dec. 3; 4(5):2177-94). The experiments were based on the P. aeruginosa strain PA14. For the case that no MIC value could be determined due to activity reasons, percentage (%) inhibition at 100 μM (or lower, depending on the solubility of the compounds) was calculated. The OD600 was measured 0 and 16 h after inhibitor addition in a CLARIOstar Platereader (BMG Labtech, Ortenberg, Germany).

[2] abbreviates: aqueous buffer, kinetic from dmso stock.

Sequence of LasB (P14756 198-498): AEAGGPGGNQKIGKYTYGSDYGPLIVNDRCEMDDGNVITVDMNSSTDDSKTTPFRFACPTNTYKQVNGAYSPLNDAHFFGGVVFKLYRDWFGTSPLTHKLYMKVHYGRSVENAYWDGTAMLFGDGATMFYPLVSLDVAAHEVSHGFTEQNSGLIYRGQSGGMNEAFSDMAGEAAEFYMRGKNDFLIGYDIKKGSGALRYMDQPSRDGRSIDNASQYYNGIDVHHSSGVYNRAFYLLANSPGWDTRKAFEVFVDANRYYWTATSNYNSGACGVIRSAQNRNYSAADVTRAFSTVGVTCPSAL
Sequence of MMP1 (P03956 100-469): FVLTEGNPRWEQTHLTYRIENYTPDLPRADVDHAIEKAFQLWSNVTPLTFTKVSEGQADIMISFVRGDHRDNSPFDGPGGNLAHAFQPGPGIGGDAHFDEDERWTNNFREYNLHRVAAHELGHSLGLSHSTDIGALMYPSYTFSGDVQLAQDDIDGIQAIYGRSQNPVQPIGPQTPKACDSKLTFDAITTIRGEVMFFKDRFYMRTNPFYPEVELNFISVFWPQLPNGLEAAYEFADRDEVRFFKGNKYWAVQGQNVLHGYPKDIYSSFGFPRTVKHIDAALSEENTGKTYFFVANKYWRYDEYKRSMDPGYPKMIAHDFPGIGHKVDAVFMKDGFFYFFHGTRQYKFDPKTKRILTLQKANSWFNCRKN
Sequence of HDAC8 (Q9BY41 whole entry): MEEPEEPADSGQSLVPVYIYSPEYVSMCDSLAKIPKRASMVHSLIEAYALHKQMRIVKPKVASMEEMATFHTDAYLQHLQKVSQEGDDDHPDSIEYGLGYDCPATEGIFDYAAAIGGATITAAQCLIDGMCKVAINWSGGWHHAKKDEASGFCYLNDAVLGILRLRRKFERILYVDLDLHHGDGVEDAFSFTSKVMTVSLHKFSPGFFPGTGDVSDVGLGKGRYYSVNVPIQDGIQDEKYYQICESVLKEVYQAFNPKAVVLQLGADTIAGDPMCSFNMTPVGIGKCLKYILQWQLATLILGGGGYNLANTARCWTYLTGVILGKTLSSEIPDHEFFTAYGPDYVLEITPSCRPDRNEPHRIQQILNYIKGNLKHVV
Sequence of HDAC3 (O15379 whole entry, looked up): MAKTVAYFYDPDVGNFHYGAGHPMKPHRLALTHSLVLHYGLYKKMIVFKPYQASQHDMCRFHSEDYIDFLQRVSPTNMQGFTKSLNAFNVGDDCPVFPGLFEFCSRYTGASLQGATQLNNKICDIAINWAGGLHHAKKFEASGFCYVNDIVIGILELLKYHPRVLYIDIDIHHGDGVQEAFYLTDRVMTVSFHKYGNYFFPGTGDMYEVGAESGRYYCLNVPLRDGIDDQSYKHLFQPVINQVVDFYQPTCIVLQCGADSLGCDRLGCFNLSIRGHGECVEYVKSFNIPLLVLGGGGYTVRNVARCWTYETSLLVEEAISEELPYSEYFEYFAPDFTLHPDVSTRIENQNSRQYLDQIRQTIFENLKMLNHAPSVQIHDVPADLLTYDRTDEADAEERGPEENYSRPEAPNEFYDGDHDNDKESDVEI
Sequence of HDAC3 (Q9Y618 whole entry partner, looked up): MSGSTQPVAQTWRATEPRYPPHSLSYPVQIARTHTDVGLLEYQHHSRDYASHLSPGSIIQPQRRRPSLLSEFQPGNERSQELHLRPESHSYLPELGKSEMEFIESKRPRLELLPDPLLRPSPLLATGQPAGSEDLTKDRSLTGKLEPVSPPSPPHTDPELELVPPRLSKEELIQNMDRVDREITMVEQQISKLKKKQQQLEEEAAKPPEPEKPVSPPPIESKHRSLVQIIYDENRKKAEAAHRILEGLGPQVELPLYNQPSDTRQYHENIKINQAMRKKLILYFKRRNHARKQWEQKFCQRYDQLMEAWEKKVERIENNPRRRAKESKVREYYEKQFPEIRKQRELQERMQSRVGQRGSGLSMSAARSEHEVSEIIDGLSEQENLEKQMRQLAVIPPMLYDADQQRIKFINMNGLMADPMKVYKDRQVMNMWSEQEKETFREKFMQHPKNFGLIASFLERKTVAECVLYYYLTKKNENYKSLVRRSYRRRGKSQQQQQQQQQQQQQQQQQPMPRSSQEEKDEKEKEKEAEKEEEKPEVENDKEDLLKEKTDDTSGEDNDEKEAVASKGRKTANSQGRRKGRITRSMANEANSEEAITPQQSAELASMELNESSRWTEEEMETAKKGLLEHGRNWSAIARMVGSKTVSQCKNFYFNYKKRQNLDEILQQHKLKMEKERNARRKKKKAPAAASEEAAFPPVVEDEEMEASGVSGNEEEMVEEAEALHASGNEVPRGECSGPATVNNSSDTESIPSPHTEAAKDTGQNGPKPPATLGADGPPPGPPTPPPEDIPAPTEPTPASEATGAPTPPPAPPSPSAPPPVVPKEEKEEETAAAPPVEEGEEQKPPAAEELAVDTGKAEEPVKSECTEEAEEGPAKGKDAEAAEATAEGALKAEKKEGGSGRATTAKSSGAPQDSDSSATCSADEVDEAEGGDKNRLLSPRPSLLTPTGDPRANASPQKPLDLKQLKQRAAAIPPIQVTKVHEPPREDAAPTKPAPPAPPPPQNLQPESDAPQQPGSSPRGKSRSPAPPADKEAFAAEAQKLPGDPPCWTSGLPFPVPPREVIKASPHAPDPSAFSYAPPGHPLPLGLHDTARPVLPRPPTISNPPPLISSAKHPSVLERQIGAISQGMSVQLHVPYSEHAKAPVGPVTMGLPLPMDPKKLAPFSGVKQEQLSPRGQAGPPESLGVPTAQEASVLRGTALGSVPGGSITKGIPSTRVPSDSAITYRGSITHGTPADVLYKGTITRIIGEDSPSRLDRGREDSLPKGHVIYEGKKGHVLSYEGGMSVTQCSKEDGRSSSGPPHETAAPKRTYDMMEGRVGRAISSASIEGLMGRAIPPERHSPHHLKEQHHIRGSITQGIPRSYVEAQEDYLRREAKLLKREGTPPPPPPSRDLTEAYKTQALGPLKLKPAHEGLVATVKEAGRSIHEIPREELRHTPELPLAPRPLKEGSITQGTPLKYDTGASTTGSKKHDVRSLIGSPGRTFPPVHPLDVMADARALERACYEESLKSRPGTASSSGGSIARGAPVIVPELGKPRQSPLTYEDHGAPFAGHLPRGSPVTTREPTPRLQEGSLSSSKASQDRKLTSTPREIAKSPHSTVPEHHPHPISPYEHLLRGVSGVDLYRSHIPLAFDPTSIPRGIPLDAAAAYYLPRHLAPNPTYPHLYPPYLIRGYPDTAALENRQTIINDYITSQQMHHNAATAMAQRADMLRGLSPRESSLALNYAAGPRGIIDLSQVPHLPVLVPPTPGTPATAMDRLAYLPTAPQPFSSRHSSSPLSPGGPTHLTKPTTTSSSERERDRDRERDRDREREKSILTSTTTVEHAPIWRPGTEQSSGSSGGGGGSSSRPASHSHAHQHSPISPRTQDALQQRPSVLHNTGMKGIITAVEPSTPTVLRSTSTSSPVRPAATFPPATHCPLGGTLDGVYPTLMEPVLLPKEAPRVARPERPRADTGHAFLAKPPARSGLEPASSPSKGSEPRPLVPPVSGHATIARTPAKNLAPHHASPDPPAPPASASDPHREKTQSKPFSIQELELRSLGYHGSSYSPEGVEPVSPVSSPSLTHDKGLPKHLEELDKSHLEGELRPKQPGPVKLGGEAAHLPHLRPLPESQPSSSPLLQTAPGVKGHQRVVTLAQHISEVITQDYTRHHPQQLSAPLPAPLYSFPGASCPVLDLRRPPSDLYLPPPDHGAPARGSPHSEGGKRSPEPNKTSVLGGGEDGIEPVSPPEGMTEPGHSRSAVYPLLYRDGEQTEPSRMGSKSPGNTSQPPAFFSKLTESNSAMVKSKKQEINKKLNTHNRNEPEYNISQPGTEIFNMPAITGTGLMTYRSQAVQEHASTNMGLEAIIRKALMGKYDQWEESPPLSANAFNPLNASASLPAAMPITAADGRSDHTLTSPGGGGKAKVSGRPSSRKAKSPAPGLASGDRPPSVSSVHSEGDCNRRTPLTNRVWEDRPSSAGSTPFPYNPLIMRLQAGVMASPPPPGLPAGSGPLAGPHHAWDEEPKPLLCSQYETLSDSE
Sequence of MMP3 (P08254 100-477): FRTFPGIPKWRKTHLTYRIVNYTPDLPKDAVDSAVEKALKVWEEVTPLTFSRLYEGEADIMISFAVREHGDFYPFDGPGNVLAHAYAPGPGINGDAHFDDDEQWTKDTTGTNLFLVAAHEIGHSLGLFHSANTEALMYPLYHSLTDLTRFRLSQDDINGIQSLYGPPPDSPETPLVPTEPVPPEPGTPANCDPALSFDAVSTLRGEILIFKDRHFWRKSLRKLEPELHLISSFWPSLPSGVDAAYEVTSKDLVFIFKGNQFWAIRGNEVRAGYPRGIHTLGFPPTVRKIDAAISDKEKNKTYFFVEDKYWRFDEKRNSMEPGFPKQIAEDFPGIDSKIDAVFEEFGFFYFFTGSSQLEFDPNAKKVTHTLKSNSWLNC
Sequence of purified LasB (P14756 198-498): as the sequence (P14756 198-498) above

What is called IC50 is the midpoint of a concentration-inhibition curve. For `CC(C)C(C(=O)NO)C(=O)Nc1ccc(Cn2cc(CNS(=O)(=O)c3ccc(I)cc3)nn2)cc1` (stereo not drawn) [Compound 182, 2-(Hydroxycarbamoyl)-N-[4-[[4-[[(4-iodophenyl)sulfonylamino]methyl]triazol-1-yl]methyl]phenyl]-3-methyl-butanamide], the half-inhibitory concentration (IC50) on LasB was determined as 0.0019 ± 0.0001 µM; at purified LasB (pig lung homogenate, 300 nM LasB, 4 h, desmosine LC-MSMS, read-out: IC50 ex vivo lung homogenate) it was 0.127 µM.
The term solubility denotes the concentration that dissolves in the medium under given conditions. As usually defined, the half-life is the time in which the quantity being followed falls by half. Read a low half-life as fast loss. Regarding `CC(C)CC(C(=O)NO)C(=O)Nc1ccc(Cn2cc(CNS(=O)(=O)c3ccc(Cl)cc3)nn2)cc1` (stereo not drawn) [Compound 161, N-[4-[[4-[[(4-Chlorophenyl)sulfonylamino]methyl]triazol-1-yl]methyl]phenyl]-2-(hydroxycarbamoyl)-4-methyl-pentanamide], the solubility at 5 min in [1] (setting [2]) is greater than 200 µM. In addition, the half-life at 1 μM in “in vitro” came to 33.9 ± 1 min. For the same compound, the results for the 50% inhibitory concentration (IC50) against LasB and against purified LasB were 0.0017 ± 0.0001 µM and 0.186 µM, respectively.
As for `CC(C)CC(C(=O)NO)C(=O)Nc1ccc(Cn2cc(CNS(=O)(=O)c3ccc(F)cc3)nn2)cc1` (stereo not drawn) [Compound 160, N-[4-[[4-[[(4-Fluorophenyl)sulfonylamino]methyl]triazol-1-yl]methyl]phenyl]-2-(hydroxycarbamoyl)-4-methyl-pentanamide], the solubility at 5 min in data set [1] (setting [2]) is greater than 200 µM. In “in vitro”, this compound came in with a half-life at 1 μM of 65.5 ± 0.7 min. Moreover, the IC50 at LasB is 0.0038 ± 0.0001 µM; on MMP2, greater than 100 µM; at MMP3, greater than 100 µM; against MMP1, greater than 100 µM; at HDAC8 it was greater than 100 µM; on HDAC3, greater than 100 µM. The IC50 at ADAM-17 (TACE) and in the data set on P. aeruginosa PA-14 was greater than 100 µM throughout. The IC50 at 48 h in “Cytotoxicity assay” (A549 cells), in the data set “Cytotoxicity assay” (HEK293 cells) and in the data set “Cytotoxicity assay” (HepG2 cells) was greater than 100 µM throughout.
Take `CC(C)CC(C(=O)NO)C(=O)Nc1ccc(Cn2cc(CNS(=O)(=O)c3ccc(I)cc3)nn2)cc1` (stereo not drawn) [Hit L1, 2-(Hydroxycarbamoyl)-N-[4-[[4-[[(4-iodophenyl)sulfonylamino]methyl]triazol-1-yl]methyl]phenyl]-4-methyl-pentanamide]: the values for the solubility at 5 min in data set [1] and in data set [1] (setting [2]) were 142 µM (≈ 89 µg/mL) and 106 ± 19 µM (≈ 66.4 µg/mL), respectively. The compound further yielded a half-life at 1 μM in the data set “in vitro” of 30.1 ± 1.5 min. Further, the half-inhibitory concentration (IC50) against LasB is 0.0024 ± 0.0001 µM; on MMP2, greater than 100 µM; against MMP3, greater than 100 µM; against MMP1 it was greater than 100 µM; at HDAC8, greater than 100 µM; at HDAC3, greater than 100 µM. In addition, the 50% inhibitory concentration (IC50) on ADAM-17 (TACE) and in the data set on P. aeruginosa PA-14 was greater than 100 µM each time. The IC50 at 48 h in the data set “Cytotoxicity assay” (A549 cells), in the data set “Cytotoxicity assay” (HEK293 cells) and in “Cytotoxicity assay” (HepG2 cells) was greater than 100 µM throughout.
